# Test results taken from patent US8859505B2, “Cysteine protease inhibitors” (Medivir UK Ltd, priority 2010, dated 2014).
# Experiments:
# human cathepsin S = molecular target: T1, human cathepsin S (Homo sapiens, UniProt P25774); assay: Cathepsin S Ki determination; format: biochemical; conditions: baculovirus-expressed enzyme, boc-Val-Leu-Lys-AMC substrate, pH 6.5; read-out: Ki Cat. S
# T1 construct: made in house; host or cells: baculovirus expression system
# Procedure: The assay uses baculovirus-expressed human cathepsin S and the boc-Val-Leu-Lys-AMC fluorescent substrate available from Bachem in a 384 well plate format, in which 7 test compounds can be tested in parallel with a positive control comprising a known cathepsin S inhibitor comparator.
# 280 μL/well of 12.5% DMSO are added to rows B-H of two columns of a 96 deep well polypropylene plate. 70 μL/well of substrate is added to row A. 2×250 μL/well of assay buffer (100 mM Na phosphate, 100 mM NaCl, pH 6.5) is added to row A, mixed, and double diluted down the plate to row H.
# 100 μL/well of assay buffer is added to columns 2-5 and 7-12 of 4 rows of a 96 well V bottom polypropylene plate. 200 μL/well of assay buffer is added to columns 1 and 6.
# 2 μl of each 10 mM test compound is added to a separate well on row A, columns 1-10. Add 90 μl assay buffer containing 1 mM DTT and 2 nM cathepsin S to each well of rows B-H and 180 μl to row A. Mix row A using a multichannel pipette and double dilute to row G. Mix row H and read in the fluorescent spectrophotometer. The readings are Prism data fitted to the competitive inhibition equation, setting S=100 μM and KM=100 μM to obtain an estimate of the up to a maximum of 100 μM.
# The second test compound is added to column 6 of the top row, the third to column 1 of the second row etc. Add 1 μL of comparator to column 6 of the bottom row. Mix column 1 and double dilute to column 5. Mix column 6 and double dilute to column 10.
# Using an 8-channel multistepping pipette set to 5×10 μL, distribute 10 μL/well of substrate to the 384 well assay plate. Distribute the first column of the substrate dilution plate to all columns of the assay plate starting at row A. The tip spacing of the multichannel pipette will correctly skip alternate rows. Distribute the second column to all columns starting at row B.
# Using a 12-channel multistepping pipette set to 4×10 μL, distribute 10 μL/well of inhibitor to the 384 well assay plate. Distribute the first row of the inhibitor dilution plate to alternate rows of the assay plate starting at A1. The tip spacing of the multichannel pipette will correctly skip alternate columns. Similarly, distribute the second, third and fourth rows to alternate rows and columns starting at A2, B1 and B2 respectively.
# Mix 20 mL assay buffer and 20 μL 1M DTT. Add sufficient cathepsin S to give 2 nM final concentration.
# Using the a distributor such as a Multidrop 384, add 30 μL/well to all wells of the assay plate and read in fluorescent spectrophotometer such as an Ascent.
# Fluorescent readings, (excitation and emission wavelengths 390 nm and 460 nm respectively, set using bandpass filters) reflecting the extent of enzyme cleavage of the fluorescent substrate, […] the inhibitor, are linear rate fitted for each well.
# Fitted rates for all wells for each inhibitor are fitted to the competitive inhibition equation using SigmaPlot 2000 to determine V, Km and Ki values.
# (§1) Potential inhibitors are screened using the above assay with variable concentrations of test compound. Reactions were initiated by addition of enzyme to buffered solutions of substrate and inhibitor. Ki values were calculated according to equation 1.
# (§2) [formula] where v0 is the velocity of the reaction, V is the maximal velocity, S is the concentration of substrate with Michaelis constant of KM, and I is the concentration of inhibitor.
# human cathepsin L = human cathepsin L (Homo sapiens, UniProt P07711); assay: Cathepsin L Ki; format: biochemical; conditions: H-D-Val-Leu-Lys-AMC substrate, pH5.5; read-out: Ki Cat. L
# Procedure: The procedure above with the following amendments is used for the determination of Ki for cathepsin L.
# The enzyme is commercially available human cathepsin L (for example Calbiochem). The substrate is H-D-Val-Leu-Lys-AMC available from Bahcem. The assay buffer is 100 mM sodium acetate 1 mM EDTA, pH5.5) The DMSO stock (10 mM in 100% DMSO) is diluted to 10% in assay buffer. Enzyme is prepared at 5 nM concentration in assay buffer plus 1 mM dithiothreitol just before use. 2 μL of 10 mM inhibitor made up in 100% DMSO is dispensed into row A. 10 μL of 50 μM substrate (=1/200 dilution of 10 mM stock in DMSO, diluted in assay buffer).
# as §1, §2
# [1] = molecular target: T2, human recombinant cathepsin K (Homo sapiens, UniProt P43235); assay: Determination of cathepsin K proteolytic catalytic activity (Ki); format: biochemical; conditions: fluorogenic substrate H-D-Ala-Leu-Lys-AMC; read-out: Ki Cat. K
# T2 construct: made in house; host or cells: not fixed: E coli, Pichia or Baculovirus systems named as options
# T2 sequence (P43235 115-329): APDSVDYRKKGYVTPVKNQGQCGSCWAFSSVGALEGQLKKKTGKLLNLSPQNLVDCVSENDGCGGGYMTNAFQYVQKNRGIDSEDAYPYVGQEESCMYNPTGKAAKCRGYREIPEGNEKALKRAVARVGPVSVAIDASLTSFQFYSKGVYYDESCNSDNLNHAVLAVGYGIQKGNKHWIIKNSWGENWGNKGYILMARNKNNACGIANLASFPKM
# Procedure: Convenient assays for cathepsin K are carried out using human recombinant enzyme, such as that described in PDB. • ID BC016058 standard; mRNA; HUM; 1699 BP. • DE Homo sapiens cathepsin K (pycnodysostosis), mRNA (cDNA clone MGC:23107 • RX MEDLINE;. RX PUBMED; 12477932. • DR RZPD; IRALp962G1234. • DR SWISS-PROT; P43235;
# The recombinant cathepsin K can be expressed in a variety of commercially available expression systems including E coli, Pichia and Baculovirus systems. The purified enzyme is activated by removal of the prosequence by conventional methods.
# Standard assay conditions for the determination of kinetic constants used a fluorogenic peptide substrate, typically H-D-Ala-Leu-Lys-AMC, and were determined in either 100 mM Mes/Tris, pH 7.0 containing 1 mM EDTA and 10 mM 2-mercaptoethanol or 100 mMNa phosphate, imM EDTA, 0.1% PEG4000 pH 6.5 or 100 mM Na acetate, pH 5.5 containing 5 mM EDTA and 20 mM cysteine, in each case optionally with […] as stabiliser. The enzyme concentration used was 5 nM. The stock substrate solution was prepared at 10 mM in DMSO. Screens were carried out at a fixed substrate concentration of 60 μM and detailed kinetic studies with doubling dilutions of substrate from 250 μM. The total DMSO concentration in the assay was kept below 3%. All assays were conducted at ambient temperature. Product fluorescence (excitation at 390 nm, emission at 460 nm) was monitored with a Labsystems Fluoroskan Ascent fluorescent plate reader. Product progress curves were generated over 15 minutes following generation of AMC product.
# as §1, §2
# [2] = reference markers for permeability categories; cited from earlier work
# T1 sequence (P25774 115-331): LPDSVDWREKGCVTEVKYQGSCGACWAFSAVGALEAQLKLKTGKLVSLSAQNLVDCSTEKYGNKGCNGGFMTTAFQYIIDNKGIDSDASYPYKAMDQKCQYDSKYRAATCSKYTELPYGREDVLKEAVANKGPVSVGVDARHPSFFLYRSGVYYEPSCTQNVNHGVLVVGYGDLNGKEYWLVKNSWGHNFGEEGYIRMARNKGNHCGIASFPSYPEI
# Chain of human cathepsin L (P07711 114-333): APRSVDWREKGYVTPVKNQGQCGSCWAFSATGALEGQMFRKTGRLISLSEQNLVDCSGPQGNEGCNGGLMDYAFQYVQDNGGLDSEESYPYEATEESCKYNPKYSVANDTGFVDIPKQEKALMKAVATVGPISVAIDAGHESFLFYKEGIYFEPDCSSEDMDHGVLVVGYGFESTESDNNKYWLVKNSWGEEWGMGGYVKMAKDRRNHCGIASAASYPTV
SMILES,Ki (human cathepsin S),Ki (human cathepsin L),Ki [1],absorption in man (%) [2]
"NC(=O)C(=O)C1(NC(=O)[C@H](CC2CCC2)NC(=O)C2CC2(F)F)CCC1 (single isomer, unassigned) [Example A43-1]",1.3 nM,4200 nM,280 nM,
"NC(=O)C(=O)[C@]1(NC(=O)[C@H](CC2(F)CCCC2)NC(=O)c2cccc(-n3ccnc3)c2)C[C@H](F)C1 [Example A1, N-[1-(1-Aminooxalyl-3-fluoro-cyclobutylcarbamoyl)-2-(1-fluoro-cyclopentyl)-ethyl]-3-imidazol-1-yl-benzamide]",0.084 nM,230 nM,500 nM,
"CC1(C[C@H](NC(=O)C2CC2)C(=O)NC2(C(=O)C(N)=O)CCC2)CCCC1 [Example A2, Cyclopropanecarboxylic acid [1-(1-aminooxalyl-cyclobutylcarbamoyl)-2-(1-methyl-cyclopentyl)-ethyl]-amide]",0.3 nM,1800 nM,630 nM,
CC1(C[C@H](NC(=O)c2ccc(F)cc2)C(=O)NC2(C(=O)C(N)=O)CCC2)CCCC1 [Example A3],0.1 nM,180 nM,140 nM,
CCC(=O)N[C@@H](CC1(C)CCCC1)C(=O)NC1(C(=O)C(N)=O)CCC1 [Example A4],4.9 nM,12000 nM,2300 nM,
Cc1ccc(C(=O)N[C@@H](CC2(F)CCCC2)C(=O)NC2(C(=O)C(N)=O)CCC2)cn1 [Example A7],0.88 nM,260 nM,650 nM,
NC(=O)C(=O)C1(NC(=O)[C@H](CC2(F)CCCC2)NC(=O)c2ccc(F)cc2F)CCC1 [Example A17],0.67 nM,490 nM,490 nM,
CC1(C[C@H](NC(=O)C(C)(C)C(F)(F)F)C(=O)NC2(C(=O)C(N)=O)CCC2)CCCC1 [Example A24],1.2 nM,3000 nM,300 nM,
NC(=O)C(=O)C1(NC(=O)[C@H](CC2(F)CCCC2)NC(=O)C2(C(F)(F)F)CC2)CCC1 [Example A25],3.6 nM,14000 nM,1300 nM,
NC(=O)C(=O)C1(NC(=O)[C@H](CC2(F)CCCC2)NC(=O)C2(C(F)(F)F)CCC2)CCC1 [Example A28],31 nM,23000 nM,15000 nM,
CC1(C[C@H](NC(=O)C(C)(C)F)C(=O)NC2(C(=O)C(N)=O)CC(F)(F)C2)CCCC1 [Example A31],2.3 nM,11000 nM,990 nM,
NC(=O)C(=O)C1(NC(=O)[C@H](CC2(F)CCCC2)NC(=O)c2ccccn2)CCC1 [Example A34],0.77 nM,710 nM,180 nM,
NC(=O)C(=O)C1(NC(=O)[C@H](CC2(F)CCCC2)NC(=O)C2(C(F)(F)F)CC2)CC1 [Example A38],7.6 nM,> 200000 nM,4600 nM,
"CC(C)(C)C[C@H](NC(=O)OC(C)(C)C)C(=O)N[C@]1(C(=O)C(N)=O)C[C@@H](F)C1 [Example C1, Tert-butyl(S)-1-((1r,3S)-1-(2-amino-2-oxoacetyl)-3-fluorocyclobutylamino)-4,4-dimethyl-1-oxopentan-2-ylcarbamate]",12 nM,11000 nM,770 nM,
CC(C)(C)OC(=O)NC(CC1(F)CCCC1)C(=O)NC1(C(=O)C(N)=O)CC(F)C1 (stereo not drawn) [Example C3],1.3 nM,1700 nM,440 nM,
CC1(C[C@H](NC(=O)OC(C)(C)C)C(=O)NC2(C(=O)C(N)=O)CCC2)CCCC1 [Example C4],1.1 nM,1700 nM,720 nM,
"CCOC(=O)N[C@@H](CC1(F)CCCC1)C(=O)N[C@]1(C(=O)C(N)=O)C[C@@H](F)C1 [Example C5, [1-(1-Aminooxalyl-3-fluoro-cyclobutylcarbamoyl)-2-(1-fluoro-cyclopentyl)-ethyl]-carbamic acid ethyl ester]",2.8 nM,5300 nM,1100 nM,
"CCOC(=O)NC(CC1(F)CCCC1)C(=O)NC1(C(=O)C(N)=O)CCC1 (stereo not drawn) [Example C6, [1-(1-Aminooxalyl-cyclobutylcarbamoyl)-2-(1-fluorocyclopentyl)-ethyl]-carbamic acid ethyl ester]",2.4 nM,3700 nM,960 nM,
"CCOC(=O)N[C@@H](CC1(F)CCCC1)C(=O)NC1(C(=O)C(N)=O)CCCC1 [Example C7, (S)-ethyl(1-((1-(2-amino-2-oxoacetyl)cyclopentyl)amino)-3-(1-fluorocyclopentyl)-1-oxopropan-2-yl)carbamate]",6.4 nM,21000 nM,2500 nM,
CC(C)(C)OC(=O)N[C@@H](CC1(F)CCCC1)C(=O)NC1(C(=O)C(N)=O)CC1 [Example C11],3.7 nM,2600 nM,1200 nM,
CC1(C[C@H](NC(=O)OC(C)(C)C)C(=O)NC2(C(=O)C(N)=O)CC2)CCCC1 [Example C12],2.7 nM,3200 nM,1900 nM,
CC(C)OC(=O)N[C@@H](CC1(F)CCCC1)C(=O)NC1(C(=O)C(N)=O)CCC1 [Example C14],2.1 nM,2800 nM,640 nM,
N[C@@H](Cc1ccccc1)C(=O)O [L-Phenylalanine],,,,100%
OC[C@@H](O)[C@@H](O)[C@H](O)[C@H](O)CO [Mannitol],,,,16%
CN(Cc1cnc2nc(N)nc(N)c2n1)c1ccc(C(=O)N[C@@H](CCC(=O)O)C(=O)O)cc1 [Methotrexate],,,,20%
